In paper PMC8041284, “Tunable Methacrylamides for Covalent Ligand Directed Release Chemistry” (Journal of the American Chemical Society, 2021):

The compounds below were run against BTK (Homo sapiens, UniProt Q06187) (assay: biochemical). Conditions: read-out: BTK inhibition (%).
Chain of BTK (Q06187 402-655 limits assumed): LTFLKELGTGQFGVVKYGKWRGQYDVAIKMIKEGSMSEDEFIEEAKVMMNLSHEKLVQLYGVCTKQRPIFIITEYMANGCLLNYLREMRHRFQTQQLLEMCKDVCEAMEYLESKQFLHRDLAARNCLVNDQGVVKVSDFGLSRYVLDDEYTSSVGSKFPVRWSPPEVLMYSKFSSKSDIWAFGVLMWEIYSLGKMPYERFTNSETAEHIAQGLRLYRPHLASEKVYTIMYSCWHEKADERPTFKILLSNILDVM

In order of rising inhibition at 10 µM:
1. Cc1sc2c(c1C)C(c1ccc(Cl)cc1)=N[C@@H](CC(=O)OC(C)(C)C)c1nnc(C)n1-2 [PCM-0095747]  10.8%
2. COc1cc(Br)c(Nc2nc(-c3c(C)nc4ncccn34)cs2)c(Br)c1 [PCM-0095777]  34%

Same assay, conditions: read-out: BTK inhibition (%), 0.75 uM BTK, […] probe 3l, 15 min preincubation

In order of rising inhibition at 10 µM:
1. CCCCCCCCCCCCCCCCn1cc[n+](Cc2ccccc2)c1C [PCM-0095755]  -51.7%
2. O=c1cc(CN2CCOCC2)occ1OCCCCCSc1ccnc2cc(C(F)(F)F)ccc12 [PCM-0095730]  -34.7%
3. CCCSc1nc(N[C@@H]2C[C@H]2c2ccc(F)c(F)c2)c2nnn([C@@H]3C[C@H](OCCO)[C@@H](O)[C@H]3O)c2n1 [PCM-0095628]  -34.2%
4. Cn1cc(-c2ccncc2)c(-c2ccc(OCc3ccc4ccccc4n3)cc2)n1 [PCM-0095695]  -33.5%
5. CCN(CC)CCN(Cc1ccc(-c2ccc(C(F)(F)F)cc2)cc1)C(=O)Cn1c(SCc2ccc(F)cc2)nc(=O)c2c1CCC2 [PCM-0095746]  -30.1%
6. CCCc1cc(C)[nH]c(=O)c1CNC(=O)c1cc(-c2ccc(N3CCN(C(C)C)CC3)nc2)cc2c1cnn2C(C)C [PCM-0095761]  -29.3%
7. CCCN1CCCC[C@H]1C(=O)Nc1c(C)cccc1C [PCM-0095613]  -24.9%
8. O=C(Nc1ccc(S(=O)(=O)Nc2ccccc2Cl)c(Cl)c1)c1ccccn1 [PCM-0095621]  -21.6%
9. O=C(/C=C\n1cnc(-c2cc(C(F)(F)F)cc(C(F)(F)F)c2)n1)N1CC(F)(F)C1 [PCM-0095738]  -16.2%
10. Cc1c(F)cc(C(=O)NC2CC2)cc1-c1ccc(C(=O)NCC(C)(C)C)cn1 [PCM-0095751]  -14.5%
11. O[C@@H](CNC[C@H](O)[C@H]1CCc2cc(F)ccc2O1)[C@@H]1CCc2cc(F)ccc2O1 [PCM-0095721]  -14%
12. CCC[C@H](Nc1nc(-c2ccc(NC(=O)NCC)c(OC)c2)ncc1C)c1cccnc1 [PCM-0095772]  -14%
13. COc1cc2ncc(-c3ccccc3)nc2cc1OC [PCM-0095612]  -13.8%
14. CCN1CCN(Cc2ccc(Nc3ncc(F)c(-c4cc(F)c5nc(C)n(C(C)C)c5c4)n3)nc2)CC1 [PCM-0095736]  -12.4%
15. CC(C)(Cc1ccc2ccccc2c1)NC[C@@H](O)COc1cccc(Cl)c1C#N [PCM-0095749]  -11.7%
16. Cc1cc(-c2ccc(CC(=O)Nc3ccc(-c4cccnc4)cc3)cc2)ccn1 [PCM-0095743]  -11.6%
17. Cc1ccc(S(=O)(=O)c2ccc([N+](=O)[O-])o2)cc1 [PCM-0095771]  -10.8%
18. O=C(NS(=O)(=O)c1ccc(Br)s1)c1ccc(Cl)cc1Cl [PCM-0095739]  -10%
19. Cc1cccc(CC(=O)N2CCc3c2ccc(-c2cn(C)c4ncnc(N)c24)c3F)n1 [PCM-0095729]  -9%
20. C[C@]12CC[C@@H]3c4ccc(OC(=O)c5ccccc5)cc4CC[C@H]3[C@@H]1CC[C@@H]2O [PCM-0095636]  -7.8%
21. COc1ccc(COc2ccc(Cc3cnc(N)nc3N)cc2OC)cc1 [PCM-0095630]  -7.6%
22. CCOc1ccccc1O[C@H](c1ccccc1)[C@H]1CNCCO1 [PCM-0095634]  -7%
23. Cc1ccc(Sc2ccccc2N2CCNCC2)c(C)c1 [PCM-0095609]  -6.9%
24. Cc1[nH]c2ccccc2c1CCNC(=O)c1cccs1 [PCM-0095767]  -6.9%
25. CCOc1cc(N2CCC(O)CC2)ccc1Nc1ncc2c(n1)N(C)c1ccccc1C(=O)N2C [PCM-0095769]  -6.2%
26. CC1(C)CCC(CN2CCN(c3ccc(C(=O)NS(=O)(=O)c4ccc(NCC5CCOCC5)c([N+](=O)[O-])c4)c(Oc4cnc5[nH]ccc5c4)c3)CC2)=C(c2ccc(Cl)cc2)C1 [PCM-0095632]  -5.4%
27. O=C(NCc1cccc(O)c1)Nc1nc(-c2ccncc2)cs1 [PCM-0095724]  -4.8%
28. C=CC[C@]1(O)CC[C@H]2[C@@H]3CCC4=CC(=O)CCC4=C3C=C[C@@]21C [PCM-0095614]  -4.7%
29. Nc1ccc2ncnc(NCCc3ccc(Oc4ccccc4)cc3)c2c1 [PCM-0095674]  -4.1%
30. CN(C)C(=O)Nc1cccc(-c2ccc(N(C)C)cc2)c1 [PCM-0095740]  -3.1%
31. NC(=O)CCCSc1nc(N)nc(-c2c(Cl)cc3c4c(cccc24)COC3)n1 [PCM-0095776]  -2.3%
32. CC(C)(C)c1[nH]cnc1/C=c1\[nH]c(=O)/c(=C/c2ccccc2)[nH]c1=O [PCM-0095681]  -2.1%
33. CCC(=O)Nc1cccc(Oc2nc(Nc3ccc(N4CCN(C)CC4)cc3OC)ncc2Cl)c1 [PCM-0095726]  -2.1%
34. Cc1[nH]c2ccccc2c1CCNCc1ccc(/C=C/C(=O)NO)cc1 [PCM-0095679]  0.8%
35. Cc1sc2c(c1C)C(c1ccc(Cl)cc1)=N[C@@H](CC(=O)Nc1ccc(O)cc1)c1nnc(C)n1-2 [PCM-0095727]  3.1%
36. CCNC(=O)Nc1ccc(-c2nc3c(c(N4CCOC[C@@H]4C)n2)CCN(C2COC2)C3)cc1 [PCM-0095629]  3.4%
37. N[C@@H]1CCCN(c2c(/C=C3\SC(=O)NC3=O)cccc2-c2ccccc2)C1 [PCM-0095732]  4.1%
38. COc1cc2c(cc1OC)CN(CCc1ccc(NC(=O)c3cc(OC)c(OC)cc3NC(=O)c3cnc4ccccc4c3)cc1)CC2 [PCM-0095616]  4.6%
39. O=C(COc1cccc2c(=O)[nH]ccc12)c1ccccc1 [PCM-0095624]  5.4%
40. Cc1ccc2c(c1)c1c(n2CCc2ccc(C)nc2)CCN(C)C1 [PCM-0095683]  6.2%
41. COc1ccc(C(=O)Nc2sc3c(c2C(N)=O)CCCC3)cc1OC [PCM-0095611]  6.9%
42. O=C(/C=C\n1cnc(-c2cc(C(F)(F)F)cc(C(F)(F)F)c2)n1)NNc1cnccn1 [PCM-0095752]  6.9%
43. CNc1nc(Nc2cn(C(C)(C)C#N)nc2C)ncc1C(F)(F)F [PCM-0095754]  7.6%
44. Cc1cccc(Nc2cc(Cl)nc(SCC(=O)O)n2)c1C [PCM-0095617]  7.7%
45. O=C(CCCCCN1C(=O)c2cccc3cccc(c23)C1=O)NO [PCM-0095631]  7.7%
46. CCOc1cc([C@@H](CS(C)(=O)=O)N2C(=O)c3cccc(NC(C)=O)c3C2=O)ccc1OC [PCM-0095620]  9%
47. Nc1cc(F)ccc1NC(=O)/C=C/c1cnn(C/C=C/c2ccccc2)c1 [PCM-0095774]  9.3%
48. Cc1cc(NC(=O)c2cccc(NC(=O)/C=C/CN(C)C)c2)ccc1Nc1nccc(-c2cccnc2)n1 [PCM-0095741]  9.7%
49. CCCNS(=O)(=O)Nc1ncnc(OCCOc2ncc(Br)cn2)c1-c1ccc(Br)cc1 [PCM-0095633]  10%
50. NC(=O)c1noc([C@H](CCCC2CCCCC2)CC(=O)NO)n1 [PCM-0095693]  10.1%
51. OC[C@H]1O[C@@H](c2ccc(Cl)c(Cc3ccc(O[C@H]4CCOC4)cc3)c2)[C@H](O)[C@@H](O)[C@@H]1O [PCM-0095610]  12.4%
52. CCOC(=O)c1[nH]c2cc(Cl)ccc2c1C(C(=O)NC(C)(C)C)N(C=O)Cc1ccc(Cl)cc1 (centres unmarked) [PCM-0095744]  13.1%
53. CNC(=O)[C@H](Cc1c[nH]c2ccccc12)NC(=O)[C@@H](CC(=O)NO)CC(C)C [PCM-0095723]  19.3%
54. CN(C)CC[C@H](CSc1ccccc1)Nc1ccc(S(=O)(=O)NC(=O)c2ccc(N3CCN(Cc4ccccc4-c4ccc(Cl)cc4)CC3)cc2)cc1[N+](=O)[O-] [PCM-0095734]  19.3%
55. O=C(c1ccccc1)c1ccc2nc(NC(=O)c3csc(C4CCN(c5ncnc6ccsc56)CC4)n3)[nH]c2c1 [PCM-0095775]  20.1%
56. O=S(=O)(CC1CS1)c1ccc(Oc2ccccc2)cc1 (centres unmarked) [PCM-0095742]  20.8%
57. CNc1nc(-c2ccc3c(N)n[nH]c3c2)cc(N2C[C@@H](C(=O)NC3CCCCC3)CC[C@H]2C)n1 [PCM-0095768]  24.1%
58. CC(=O)O/N=C1\C(=O)N(Cc2cc(Cl)ccc2Cl)c2ccc(Cl)cc21 [PCM-0095733]  28.6%
59. O=C1NC(=O)[C@@H](c2cn3c4c(cccc24)CCC3)[C@@H]1c1c[nH]c2ccccc12 [PCM-0095697]  29%
60. COc1cc(-n2c(=S)[nH]c3ccccc3c2=O)c(Cl)cc1Cl [PCM-0095750]  29.3%
61. CC1(C)S[C@@H]2[C@H](NC(=O)[C@H](NC(=O)N3CCNC3=O)c3ccccc3)C(=O)N2[C@H]1C(=O)O [PCM-0095627]  30.4%
62. CCOC(=O)c1ccc(NC2CCCCC2)c(N)c1 [PCM-0095725]  31.7%
63. c1cn2cc(-c3ccc4cn[nH]c4c3)nc(Nc3ccc(N4CCOCC4)cc3)c2n1 [PCM-0095758]  33.8%
64. O=C(/C=C/c1ccccc1)NC(NC(=S)Nc1ccc(Cl)cc1)C(Cl)(Cl)Cl (centres unmarked) [PCM-0095765]  34%
65. Nc1ncnc2n[nH]c(Nc3ccc(F)cc3)c12 [PCM-0095728]  37.9%
66. Cc1cc(C)c(-c2csc(NC(=O)c3ccccc3)n2)c(C)c1 [PCM-0095756]  41.7%
67. CN(C)CCCn1cc(C2=C(c3c[nH]c4ccccc34)C(=O)NC2=O)c2ccccc21 [PCM-0095737]  47.6%
68. O=C(O)c1ccc(C=C2SC(=S)N(c3cccc(C(F)(F)F)c3)C2=O)cc1 [PCM-0095759]  54.1%
69. O=C(/C=C/c1ccc(O)c(O)c1)c1ccc(O)cc1O [PCM-0095622]  55.2%
70. CN(CC(=O)N(Cc1ccc(C2CCCCC2)cc1)c1ccc(C(=O)O)cc1)S(=O)(=O)c1c(F)c(F)c(F)c(F)c1F [PCM-0095763]  68.7%
71. Cc1cc(Nc2ncc(Cl)c(Nc3ccccc3S(=O)(=O)C(C)C)n2)c(OC(C)C)cc1C1CCNCC1 [PCM-0095745]  69.7%
72. NC(=O)c1cnc(N[C@@H]2CCCC[C@@H]2N)nc1Nc1cccc(-n2nccn2)c1 [PCM-0095619]  70.3%
73. CNCc1ccc(C)c(NC(=O)c2ccc(Nc3nc(-c4ccccc4)c4ccccc4n3)cc2)c1 [PCM-0095748]  79.5%
74. Oc1ccc(Nc2nc(-c3ccc(Cl)cc3)cs2)cc1 [PCM-0095692]  84.8%
75. O=C(O)c1ccc(N2C(=O)/C(=C/c3ccc(-c4ccc([N+](=O)[O-])cc4)o3)C=C2c2ccccc2)cc1 [PCM-0095764]  98.1%
